Series [1] deals with Peritoneal macrophage. In words: Suppression of HMGB1-induced IL-1beta mRNA expression in male ddY mouse Peritoneal macrophage cells at 10 uM incubated for 2 hrs by qRT-PCR analysis. Format: functional, cell-based.
In series [2] the test system is Peritoneal macrophage. In words: Suppression of HMGB1-induced IL-1beta mRNA expression in male ddY mouse Peritoneal macrophage cells at 10 nM incubated for 2 hrs in presence of RU486 by qRT-PCR analysis. The series is classed as functional, cell-based. In general terms: In qPCR the cycle at which signal appears reflects the starting amount.
Series [3] has as its system RAW264.7. Briefly: Cytotoxicity against mouse RAW264.7 cells at 100 uM measured after 2 hrs by LDH assay. The series is classed as toxicity, cell-based. Conditions: raw264.7, 2 h.
The test system of series [4] is RAW264.7. Briefly: Cytotoxicity against mouse RAW264.7 cells at 30 to 100 uM measured after 2 hrs by LDH assay. Format: toxicity, cell-based. To be noted: raw264.7, 2 h, dose 30-100 µM.
Series [5] relates to Mus musculus. Briefly: Neuroprotective activity in male ddY mouse model of collagenase induced intracerebral hemorrhage assessed as rescue of ICH-induced neuronal loss by measuring increase in NeuN-positive neurons in periphery of […] at 100 mg/kg, po pretreated with collagenase for 20 mins followed by compound administration via oral gavage and measured at 24 hrs by immunohistochemical staining based analysis. Format: functional, organism-based.

Series [6] deals with Mus musculus. In words: Effect on brain water content in cerebellum in male ddY mouse model of collagenase induced intracerebral hemorrhage at 100 mg/kg, po pretreated with collagenase for 20 mins followed by compound administration via oral gavage and measured at 24 hrs. The series is classed as functional, organism-based.
Series [7] has as its system Mus musculus. In words: Suppression of IL-1beta mRNA expression in po dosed male ddY mouse model of collagenase induced intracerebral hemorrhage pretreated with collagenase for 20 mins followed by compound administration via oral gavage and measured at 24 hrs by qRT-PCR analysis. The series is classed as functional, organism-based. To be noted: dose 50-100 mg/kg.
Series [8] can be described thus: Drug uptake in brain of male ddY mouse model of collagenase induced intracerebral hemorrhage assessed as appearance of unchanged form of drug by measuring retention time at 100 mg/kg, po pretreated with collagenase for 20 mins followed by compound administration via oral gavage and measured at 24 hrs by LC-MS analysis. Conditions: in vivo. The series is classed as ADME, organism-based.

In series [9] the test system is Mus musculus. In words: Effect on hematoma size in male ddY mouse model of collagenase induced intracerebral hemorrhage at 100 mg/kg, po pretreated with collagenase for 20 mins followed by compound administration via oral gavage and measured at 24 hrs. The series is classed as functional, organism-based.
Series [10] relates to Mus musculus. In words: In vivo inhibition of HMGB1 in male ddY mouse model of collagenase induced intracerebral hemorrhage assessed as reduction in AQP4 protein level at 100 mg/kg, po pretreated with collagenase for 20 mins followed by compound administration via oral gavage and measured at 24 hrs by Western blot analysis. Format: functional, organism-based. A general note: In western blotting, separated proteins are transferred to a membrane and probed.

Series [11] deals with Peritoneal macrophage. Briefly: Suppression of HMGB1-induced IL-1beta mRNA expression in male ddY mouse Peritoneal macrophage cells at 10 uM incubated for 2 hrs in presence of RU486 by qRT-PCR analysis. The series is classed as functional, cell-based.
In series [12] the test system is Mus musculus. In words: Effect on brain water content in contralateral hemisphere in male ddY mouse model of collagenase induced intracerebral hemorrhage at 100 mg/kg, po pretreated with collagenase for 20 mins followed by compound administration via oral gavage and measured at 24 hrs. The series is classed as functional, organism-based.
Series [13] in a line: Solubility of compound at >10 uM. The series is classed as physicochemical.
Series [14] relates to Mus musculus. Briefly: In vivo inhibition of HMGB1 in male ddY mouse model of collagenase induced intracerebral hemorrhage assessed as reduction in brain water content in ipsilateral hemisphere at 100 mg/kg, po pretreated with collagenase for 20 mins followed by compound administration via oral gavage and measured at 24 hrs. Format: functional, organism-based.

Activity calls are given as the source filed them. No cut-off for these calls is given here.

Turning to `CC1(C)[C@@H](O[C@H]2O[C@H](C(=O)O)[C@@H](O)[C@H](O)[C@H]2O[C@@H]2O[C@H](C(=O)O)[C@@H](O)[C@H](O)[C@H]2O)CC[C@]2(C)[C@H]3C(=O)C=C4[C@@H]5C[C@@](C)(C(=O)O)CC[C@]5(C)CC[C@@]4(C)[C@]3(C)CC[C@@H]12`, in the series with Peritoneal macrophage [1], the outcome was Active.

As to `C[C@]12CCC(=O)C=C1CC[C@@H]1[C@@H]2[C@@H](O)C[C@@]2(C)[C@H]1CC[C@]2(O)C(=O)CO`, the outcome in the series with Peritoneal macrophage [2] was inactive.

For the molecule `CC1(C)[C@@H](O)CC[C@]2(C)[C@H]3C(=O)C=C4[C@@H]5C[C@@](C)(C(=O)O)CC[C@]5(C)C[C@H](O)[C@@]4(C)[C@]3(C)CC[C@@H]12`, the result with Peritoneal macrophage [1] was inactive.

With `CC1(C)C(=O)CC[C@]2(C)[C@H]3C(=O)C=C4[C@@H]5C[C@@](C)(C(=O)O)CC[C@]5(C)C[C@H](O)[C@@]4(C)[C@]3(C)CC[C@@H]12`, the outcome in the series with Peritoneal macrophage [1] was inactive. For the same molecule, the Activity result with RAW264.7 [3] is recorded as “Toxic”.

With `CC1(C)[C@@H](O)CC[C@]2(C)[C@H]3C(=O)C=C4[C@@H]5C[C@@](C)(C(=O)O)CC[C@]5(C)CC[C@@]4(C)[C@]3(C)CC[C@@H]12` [ENOXOLONE], the Activity entry in the series with RAW264.7 [4] is given as “Toxic”.

For `CC1(C)C(=O)CC[C@]2(C)[C@H]3C(=O)C=C4[C@@H]5C[C@@](C)(C(=O)O)CC[C@]5(C)CC[C@@]4(C)[C@]3(C)CC[C@@H]12`, the Activity result with RAW264.7 [3] is on record as “Toxic”.

As for `COC(=O)[C@@]1(C)CC[C@]2(C)CC[C@]3(C)C(=CC(=O)[C@@H]4[C@@]5(C)CCC(=O)C(C)(C)[C@@H]5CC[C@]43C)[C@@H]2C1`, the outcome in the series with Mus musculus [5], in the series with Peritoneal macrophage [1] and in the series on Peritoneal macrophage [11] was Active. The result in the series on Mus musculus [6], in the series with Mus musculus [9] and with Mus musculus [12] was inactive. The Activity result with Mus musculus [7] is “Dose-Dependent Effect”. Further, in [8], the Retention_time turned out to be 11.3 min. In addition, the inhibition entry in the series with Mus musculus [10] and with Mus musculus [14] was “Active” throughout. Also, in [13], the solubility result is “Insoluble”.

(Values after ChEMBL document CHEMBL5579891, “A Glycyrrhizin Derivative with a More Potent Inhibitory Activity against High-Mobility Group Box 1 Efficiently Discovered by Chemical Synthesis Inspired by the Bioconversion Products of an Endophytic Fungus Isolated from Licorice” (J Med Chem, 2024).)
